Patent publication US6555529B1, “Remedies for intramedullary diseases” (Toray Industries, Inc., priority 1997, dated 2003)
Marks after values point to notes of the source that are not given here.

Tests used:
[1] = system: osteomyelitis accompanying adjuvant arthritis (neutrophil infiltration into joints); experiment: Suppression of osteomyelitis accompanying rat adjuvant arthritis; assay type: in vivo; conditions: for Osteomyelitis score for the intertarsal and tarsometatarsal joints / Osteomyelitis score for the talocrural joint region: Lewis rats, scored day 22, grades 0-3, mean ± SE; for osteomyelitis suppressing effect (in words): rat adjuvant arthritis, summary of Table 1
Protocol: 0.1 mg of inactivated dried Mycobacterium butyricum was suspended in 0.1 ml of liquid paraffin, and this was injected into the left hind foot pad of 8-week old female Lewis rats. […] As a control group, the subcutaneous administration of sterile distilled water was carried out. One day after the completion of the administration (day 22) the rats were sacrificed, the skin and muscle removed from the right hind limb and, following decalcification, pathological specimens were prepared. […] Furthermore, Diclofenac (Compound 4) and Indomethacin (Compound 5) were used as existing anti-inflammatory drugs. The results obtained are shown in Table 1 as mean values±standard errors. Using the […] multiple comparison method (parametric), the results were assigned the symbol * when significant at a level of significance of p<0.05, and the symbol ** when significant at a level of significance of p<0.01, compared to the control group in which only sterile distilled water was used.

[2] = system: T-cell type acute lymphoblastic leukaemia cell strain RPMI-8402; experiment: Suppression of RPMI-8402 cell proliferation (MTT assay); assay type: cell-based; conditions: 120 hours culture, mean ± SE
Protocol: (§1) Acute promyelocytic leukaemia cell strain KG-1, T-cell type acute lymphoblastic leukaemia cell strain RPMI-8402, B-cell-type acute lymphoblastic leukaemia cell strain CCRF-SB, chronic myelocytic leukaemia cell strain K562 and myeloblastoma cell strain ML-2 were prepared at concentrations of 2×10^4 or 4×10^4 cells per ml of culture medium. In each case, 0.05 ml quantities were added per well of a 96 well culture plate and culturing carried out at a carbon dioxide concentration of 5% for 24 hours at 37° C. Furthermore, 0.05 ml quantities of culture medium to which Compound 1 had been added were added to the aforesaid culture plate, and culturing carried out under the same conditions for 120 hours. The number of cells when the culturing was completed was calculated by the MTT calorimetric assay and the percentage suppression of tumour cell proliferation in terms of a control group to which no compound had been added was determined.
(§2) As well as Compound 1, there were used as test compounds 1-hydroxyethane-1,1-bisphosphonic acid disodium salt (Compound 6) and (4-chlorophenylthio)methane-1,1-bisphosphonic acid disodium salt (Compound 7). The results are shown in Table 2 as mean values±standard errors.
(§3) Using Dunett multiple comparison method (parametric), the results were assigned the symbol * when significant at a level of significance of p<0.05, and the symbol *** when significant at a level of significance of p<0.001, compared to the control group.

[3] = system: chronic myelocytic leukaemia cell strain K562; experiment: Suppression of K562 cell proliferation (MTT assay); assay type: cell-based; design: unit of the concentration uncertain; conditions: 120 hours culture, mean ± SE
Protocol: as §1, §2, §3

tumour cells = experiment: Suppression of leukaemia cell and myeloma cell proliferation (summary over all cell strains); assay type: cell-based; conditions: summary of Table 2
Protocol: as §1
As well as Compound 1, there were used as test compounds 1-hydroxyethane-1,1-bisphosphonic acid disodium salt (Compound 6) and (4-chlorophenylthio)methane-1,1-bisphosphonic acid disodium salt (Compound 7). The results are shown in Table 2 as mean values±standard errors. […]

[4] = system: myeloblastoma cell strain ML-2; experiment: Suppression of ML-2 cell proliferation (MTT assay); assay type: cell-based; design: unit of the concentration uncertain; conditions: 120 hours culture, mean ± SE
Protocol: as §1, §2, §3

[5] = system: B-cell-type acute lymphoblastic leukaemia cell strain CCRF-SB; experiment: Suppression of CCRF-SB cell proliferation (MTT assay); assay type: cell-based; design: unit of the concentration uncertain; conditions: 120 hours culture, mean ± SE
Protocol: as §1, §2, §3

[6] = system: acute promyelocytic leukaemia cell strain KG-1; experiment: Suppression of KG-1 cell proliferation (MTT assay); assay type: cell-based; design: unit of the concentration uncertain; conditions: 120 hours culture, mean ± SE
Protocol: as §1, §2, §3

Row | Structure (SMILES) | osteomyelitis suppressing effect (in words) [1] | Percentage suppression of RPMI8402 cell proliferation ([2]; 1 mM) | Percentage suppression of RPMI8402 cell proliferation ([2]; 10 mM) [%] | Percentage suppression of RPMI8402 cell proliferation ([2]; 100 mM) [%] | Percentage suppression of K562 cell proliferation ([3]; 1 (unit uncertain)) | Percentage suppression of K562 cell proliferation ([3]; 10 (unit uncertain)) [%] | Percentage suppression of K562 cell proliferation ([3]; 100 (unit uncertain)) [%] | proliferation of tumour cells (in words) (tumour cells) | Percentage suppression of ML-2 cell proliferation ([4]; 1 (unit uncertain)) | Percentage suppression of ML-2 cell proliferation ([4]; 10 (unit uncertain)) [%] | Percentage suppression of ML-2 cell proliferation ([4]; 100 (unit uncertain)) | Percentage suppression of CCRF-SB cell proliferation ([5]; 1 (unit uncertain)) | Percentage suppression of CCRF-SB cell proliferation ([5]; 10 (unit uncertain)) [%] | Percentage suppression of CCRF-SB cell proliferation ([5]; 100 (unit uncertain)) [%] | Percentage suppression of KG-1 cell proliferation ([6]; 1 (unit uncertain)) | Percentage suppression of KG-1 cell proliferation ([6]; 10 (unit uncertain)) [%] | Percentage suppression of KG-1 cell proliferation ([6]; 100 (unit uncertain)) [%] | also measured
1 | NCCCC(O)(P(=O)(O)O)P(=O)(O)O [Compound 2, 4-amino-1-hydroxybutane-1,1-bisphosphonic acid] | suppressed |  |  |  |  |  |  |  |  |  |  |  |  |  |  |  |  | Osteomyelitis score for the intertarsal and tarsometatarsal joints ([1]; 0.31 mg/kg, Table 1-2): 0.2 ± 0.17**; Osteomyelitis score for the talocrural joint region ([1]; 0.31 mg/kg, Table 1-2): 0.0 ± 0.0**
2 | O=C(O)Cc1ccccc1Nc1c(Cl)cccc1Cl [Compound 4, Diclofenac, reference compound] | weak |  |  |  |  |  |  |  |  |  |  |  |  |  |  |  |  | Osteomyelitis score for the intertarsal and tarsometatarsal joints ([1]; 0.1 mg/kg, Table 1-4): 1.8 ± 0.2; Osteomyelitis score for the talocrural joint region ([1]; 0.1 mg/kg, Table 1-4): 1.2 ± 0.3
3 | COc1ccc2c(c1)c(CC(=O)O)c(C)n2C(=O)c1ccc(Cl)cc1 [Compound 5, Indomethacin, reference compound] | weak |  |  |  |  |  |  |  |  |  |  |  |  |  |  |  |  | Osteomyelitis score for the intertarsal and tarsometatarsal joints ([1]; 0.1 mg/kg, Table 1-5): 2.5 ± 0.2; Osteomyelitis score for the talocrural joint region ([1]; 0.1 mg/kg, Table 1-5): 1.8 ± 0.4
4 | O=P([O-])([O-])C(Sc1ccc(Cl)cc1)P(=O)(O)O.[Na+].[Na+] [Compound 7, (4-chlorophenylthio)methane-1,1-bisphosphonic acid disodium salt] |  | 87.2 ± 0.6*** % | −2.5 ± 2.0 | 7.4 ± 6.3 | 97.8 ± 0.3*** % | −1.0 ± 1.3 | −3.1 ± 0.5 | suppressed | 130.4 ± 11.2*** % | 7.3 ± 7.3 | 42.8 ± 10.1* % | 61.3 ± 1.1*** % | 0.1 ± 1.9 | 3.5 ± 2.2 | 97.1 ± 0.6*** % | −1.1 ± 1.1 | 2.2 ± 1.6 | 
5 | CC(O)(P(=O)([O-])[O-])P(=O)(O)O.[Na+].[Na+] [Compound 6, 1-hydroxyethane-1,1-bisphosphonic acid disodium salt] |  | 28.2 ± 2.0*** % | −3.4 ± 1.3 | 2.9 ± 1.5 | 44.4 ± 1.3*** % | −2.5 ± 0.3 | 3.2 ± 0.6 | suppressed | 147.2 ± 20.4*** % | −20.6 ± 17.2 | 16.0 ± 17.2% | 42.1 ± 0.9*** % | 2.2 ± 0.8 | 0.4 ± 1.2 | 40.7 ± 1.7*** % | 1.6 ± 2.1 | 2.9 ± 2.4 | 
6 | O=P(O)(O)C(O)(Cc1cccnc1)P(=O)(O)O [Compound 3, 2-(3-pyridyl)-1-hydroxyethane-1,1-bisphosphonic acid] | suppressed |  |  |  |  |  |  |  |  |  |  |  |  |  |  |  |  | Osteomyelitis score for the intertarsal and tarsometatarsal joints ([1]; 0.31 mg/kg, Table 1-3): 0.0 ± 0.0**; Osteomyelitis score for the talocrural joint region ([1]; 0.31 mg/kg, Table 1-3): 0.0 ± 0.0**
